According to ChEMBL document CHEMBL1130643, “Synthesis of benzanilide derivatives as dual acting agents with alpha 1-adrenoceptor antagonistic action and steroid 5-alpha reductase inhibitory activity” (Bioorg Med Chem Lett, 1998):

Experiments:
[1] = target: T1, Steroid 5-alpha-reductase (Rattus norvegicus, UniProt P24008+P31214); assay: Inhibitory activity against prostatic 5-alpha reductase in Sprague-Dawley rat; format: protein assay
T1 sequence (P24008 whole entry): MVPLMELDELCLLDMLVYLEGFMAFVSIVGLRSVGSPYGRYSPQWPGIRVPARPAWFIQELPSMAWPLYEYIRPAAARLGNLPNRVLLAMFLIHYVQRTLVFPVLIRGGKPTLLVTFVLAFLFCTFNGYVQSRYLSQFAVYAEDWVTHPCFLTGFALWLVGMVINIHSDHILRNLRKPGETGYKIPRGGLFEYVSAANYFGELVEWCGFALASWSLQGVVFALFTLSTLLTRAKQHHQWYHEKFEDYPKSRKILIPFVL
T1 sequence (P31214 whole entry): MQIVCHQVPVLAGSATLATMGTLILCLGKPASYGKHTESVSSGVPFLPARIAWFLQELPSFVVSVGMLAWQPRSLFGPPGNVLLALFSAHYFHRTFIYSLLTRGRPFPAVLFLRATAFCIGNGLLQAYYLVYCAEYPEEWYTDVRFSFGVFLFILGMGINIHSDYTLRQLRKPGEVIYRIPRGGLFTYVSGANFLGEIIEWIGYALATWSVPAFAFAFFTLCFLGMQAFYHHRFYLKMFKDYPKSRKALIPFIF

[2] = target: Adrenergic receptor alpha-1 (Oryctolagus cuniculus); assay: Inhibition of phenylephrine-induced contractions in white rabbit prostate.

| IC50 [1] [nM] | pA2 [2] | Structure (SMILES) |
| --- | --- | --- |
| – | 7.1 | COc1ccccc1NC(=O)c1ccc(OCCCN2CCN(c3ccccc3OC)CC2)cc1 |
| 910 | 6.6 | COc1ccccc1N1CCN(CCCCC(Oc2ccc(C(=O)Nc3ccccc3OCCCC(=O)O)cc2)c2ccccc2)CC1 (stereo not given) |
| 130 | 6.7 | CCc1ccc(C(CCN2CCN(c3ccccc3OC)CC2)Oc2ccc(NC(=O)c3ccccc3OCCCC(=O)O)cc2)cc1 (stereo not given) |
| 43000 | 7.1 | COc1ccccc1N1CCN(CCCCOc2ccc(C(=O)Nc3ccccc3OCCCC(=O)O)cc2)CC1 |
| 39 | 5.7 | COc1ccccc1N1CCN(CCC(Oc2ccc(C(=O)Nc3ccccc3OCCCC(=O)O)cc2)c2ccc(CC(C)C)cc2)CC1 (stereo not given) |
| 440 | 7.1 | COc1ccccc1N1CCN(CCC(Oc2ccc(NC(=O)c3ccccc3OCCCC(=O)O)cc2)c2ccc(C)cc2)CC1 (stereo not given) |

The remaining lines, values behind:

| Structure (SMILES) | IC50 [1] [nM] | pA2 [2] |
| --- | --- | --- |
| COc1ccccc1N1CCN(CCOc2ccc(C(=O)Nc3ccccc3OCCCC(=O)O)cc2)CC1 | 29000 | 6.6 |
| COc1ccccc1N1CCN(CCC(Oc2ccc(C(=O)Nc3ccccc3OCCCC(=O)O)cc2)c2cccc(C)c2)CC1 (stereo not given) | 360 | 6.6 |
| COc1ccccc1N1CCN(CCCCCCOc2ccc(C(=O)Nc3ccccc3OCCCC(=O)O)cc2)CC1 | 9500 | 7 |
| COc1ccccc1N1CCN(CCCOc2ccc(C(=O)Nc3ccccc3OCCCC(=O)O)cc2)CC1 | 41000 | 7 |
| COc1ccccc1N1CCN(CCCC(Oc2ccc(C(=O)Nc3ccccc3OCCCC(=O)O)cc2)c2ccccc2)CC1 (stereo not given) | 750 | 6.5 |
| COc1ccccc1N1CCN(CCC(Oc2ccc(C(=O)Nc3ccccc3OCCCC(=O)O)cc2)c2ccccc2)CC1 (stereo not given) | 1000 | 7.6 |
| COc1ccccc1N1CCN(CCC(Oc2ccc(C(=O)Nc3ccccc3OCCCC(=O)O)cc2)c2ccc(Br)cc2)CC1 (stereo not given) | 210 | 7 |
| COc1ccccc1N1CCN(CCC(Oc2ccc(NC(=O)c3ccccc3OCCCC(=O)O)cc2)c2ccccc2)CC1 (stereo not given) | 730 | 7.1 |
| CCc1ccc(C(CCN2CCN(c3ccccc3OC)CC2)Oc2ccc(C(=O)Nc3ccccc3OCCCC(=O)O)cc2)cc1 (stereo not given) | 70 | 7.4 |
| COc1ccccc1N1CCN(CCC(Oc2ccc(C(=O)Nc3ccccc3OCCCC(=O)O)cc2)c2ccc(C)cc2)CC1 (stereo not given) | 67 | 7.8 |
| COc1ccc(C(CCN2CCN(c3ccccc3OC)CC2)Oc2ccc(C(=O)Nc3ccccc3OCCCC(=O)O)cc2)cc1 (stereo not given) | 170 | 6.7 |
| COc1ccccc1N1CCN(CCC(Oc2ccc(NC(=O)c3ccccc3OCCCC(=O)O)cc2)c2ccc(CC(C)C)cc2)CC1 (stereo not given) | 96 | 5.2 |
